Patent US4731109A, “Herbicidal 2-haloacetanilides” (Monsanto Company, priority 1982, dated 1988)
Where two headings read alike, the source gives them in different places.

Legend:
Assay type in all cases: in vivo
[1] = test system: Florida Pusley; assay: Field preemergence activity in peanuts, surface applied; conditions: for inhibition at 2240 g/ha: 2.24 Kg/Ha; for inhibition at 4480 g/ha: 4.48 Kg/Ha
Excerpt: (§1) It will be understood by those skilled in the art that not all of the named weeds are selectively controlled in all of the named crops under all conditions of climate, soil, moisture and/or herbicide application modes. Selectivity data for control of the foregoing weeds in the crops soybeans, corn, cotton and peanuts from a plurality of field tests in various locations under various conditions of soil, moisture, etc., is shown collectively in Tables VIII-XI, respectively.
(§2) In Table XI is presented preemergence activity data for the compound of Example 1 against three resistant annual weeds, i.e., Texas panicum, bristly starbur and Florida pusley in peanuts for periods up to 12 WAT. The data in Table XI represent the average of three replicate runs in sandy loam soil having 1.3% organic matter, 79.2% sand and 10% clay; herbicide surface applied.

[2] = test system: Bristly Starbur; assay: as above; conditions: for inhibition at 2240 g/ha / inhibition at 3360 g/ha / inhibition at 4480 g/ha: pre-emergence, read-out: Percent Inhibition; for inhibition at 2240 g/ha: 2.24 Kg/Ha; for inhibition at 3360 g/ha: 3.36 Kg/Ha; for inhibition at 4480 g/ha: 4.48 Kg/Ha
Excerpt: as §1, §2

[3] = test system: Texas panicum; assay: as above; conditions: pre-emergence, read-out: Percent Inhibition; for inhibition at 2240 g/ha: 2.24 Kg/Ha; for inhibition at 3360 g/ha: 3.36 Kg/Ha; for inhibition at 4480 g/ha: 4.48 Kg/Ha
Excerpt: as §1, §2

[4] = test system: peanuts; assay: as above; conditions: pre-emergence, read-out: Percent Inhibition; for inhibition at 2240 g/ha: 2.24 Kg/Ha; for inhibition at 3360 g/ha: 3.36 Kg/Ha; for inhibition at 4480 g/ha: 4.48 Kg/Ha
Excerpt: as §1, §2

[5] = test system: prickly sida; assay: Field tests, selectivity; conditions: in cotton
Excerpt: (§3) In the discussion and tables of data below, reference is made to herbicide application rates symbolized as "GR15 " and "GR85 "; these rates are given in kilograms per hectare (kg/ha) which are convertible into pounds per acre (lbs/A) by dividing the kg/ha rate by 1.12.
(§4) A further guide to the effectiveness of a chemical as a selective herbicide is the "selectivity factor" ("SF") for a herbicide in given crops and weeds. The selectivity factor is a measure of the relative degree of crop safety and weed injury and is expressed in terms of the GR15 /GR85 ratio, i.e., the GR15 rate for the crop divided by the GR85 rate for the weed, both rates in kg/ha (lb/A). In the tables below, selectivity factors are shown in parenthesis following the GR85 rate for each weed; the symbol "NS" indicates "non-selective". Marginal or undetermined selectivity is indicated by a dash (--).
as §1

[6] = test system: Pennsylvania smartweed; assay: Field tests, selectivity; conditions: in soybeans, P.P.I., 8 WAT
Excerpt: as §3, §4, §1

[7] = test system: Yellow foxtail; assay: Field tests, selectivity; conditions: in soybeans, 6 WAT
Excerpt: as §3, §4, §1

[8] = test system: Lambsquarters; assay: Field tests, selectivity; conditions: in soybeans, 6 WAT
Excerpt: as §3, §4, §1

[9] = test system: purslane; assay: Field tests, selectivity; conditions: in cotton, S.A., 9 WAT
Excerpt: as §3, §4, §1

[10] = test system: Giant foxtail; assay: Field tests, selectivity
Excerpt: as §3, §4, §1

[11] = test system: corn; assay: Field tests, selectivity
Excerpt: as §3, §4, §1

[12] = test system: Cocklebur; assay: Field tests, selectivity; conditions: in corn
Excerpt: as §3, §4, §1

[13] = test system: purple nutsedge; assay: Field tests, selectivity; conditions: in cotton
Excerpt: as §3, §4, §1

[14] = test system: cotton; assay: Field tests, selectivity
Excerpt: as §3, §4, §1

[15] = test system: crabgrass (smooth and hairy); assay: Field tests, selectivity; conditions: in cotton, 7 WAT
Excerpt: as §3, §4, §1

[16] = test system: goosegrass; assay: Field tests, selectivity; conditions: in cotton, P.P.I., 7 WAT
Excerpt: as §3, §4, §1

[17] = pre-emergence, 4 WAT, read-out: Percent Inhibition
[18] = pre-emergence, 8 WAT, read-out: Percent Inhibition

**Q.** Which results are given for `CCOCN(C(=O)CCl)c1c(C)cccc1C(F)(F)F` [Example 1, N-(ethoxymethyl)-2'-trifluoromethyl-6'-methyl-2-chloroacetanilide]?
**A.** control ([1]; 4.48 kg/ha, 12 WAT): 95%; inhibition at 2240 g/ha [1, 17]: 0%; inhibition at 2240 g/ha [1, 18]: 90%; inhibition at 3360 g/ha ([1]; pre-emergence, 3.36 Kg/Ha, 4 WAT, read-out: Percent Inhibition): 0%; inhibition at 4480 g/ha [1, 17]: 0%; inhibition at 4480 g/ha [1, 18]: 95%; inhibition at 4480 g/ha ([1]; pre-emergence, 12 WAT, read-out: Percent Inhibition): 95%; control ([2]; 4.48 kg/ha, 12 WAT): complete control; inhibition at 2240 g/ha ([2]; 8 WAT): 78%; inhibition at 2240 g/ha ([2]; 12 WAT): 40%; inhibition at 3360 g/ha ([2]; 8 WAT): 85%; inhibition at 3360 g/ha ([2]; 12 WAT): 60%; inhibition at 4480 g/ha ([2]; 8 WAT): 95%; inhibition at 4480 g/ha ([2]; 12 WAT): 100%; inhibition at 2240 g/ha ([3]; 4 WAT): 50%; inhibition at 2240 g/ha ([3]; 8 WAT): 67%; inhibition at 2240 g/ha ([3]; 12 WAT): 40%; inhibition at 3360 g/ha ([3]; 4 WAT): 68%; inhibition at 3360 g/ha ([3]; 8 WAT): 63%; inhibition at 3360 g/ha ([3]; 12 WAT): 55%; inhibition at 4480 g/ha ([3]; 4 WAT): 85%; inhibition at 4480 g/ha ([3]; 8 WAT): 88%; inhibition at 4480 g/ha ([3]; 12 WAT): 78%; inhibition at 2240 g/ha ([4]; 4 WAT): 5%; inhibition at 2240 g/ha ([4]; 8 WAT): 0%; inhibition at 2240 g/ha ([4]; 12 WAT): 0%; inhibition at 3360 g/ha ([4]; 4 WAT): 10%; inhibition at 3360 g/ha ([4]; 8 WAT): 0%; inhibition at 3360 g/ha ([4]; 12 WAT): 0%; inhibition at 4480 g/ha ([4]; 4 WAT): 17%; inhibition at 4480 g/ha ([4]; 8 WAT): 7%; inhibition at 4480 g/ha ([4]; 12 WAT): 0%; GR85 ([5]; P.P.I., 6 WAT): 4.8 kg/ha; GR85 ([5]; S.A., 6 WAT): 3.1 kg/ha; S.F. (GR15/GR85) ([5]; S.A., 6 WAT): 1; GR85 ([5]; S.A., 9 WAT): 4.8 kg/ha; GR85 [6]: 2.5 kg/ha; S.F. (GR15/GR85) [6]: 2; GR85 ([7]; P.P.I.): < 1.12 kg/ha; S.F. (GR15/GR85) ([7]; P.P.I.): > 1; GR85 ([7]; S.A.): 1.1 kg/ha; S.F. (GR15/GR85) ([7]; S.A.): 2; GR85 ([8]; P.P.I.): 2.8 kg/ha; GR85 ([8]; S.A.): 2.5 kg/ha; S.F. (GR15/GR85) ([8]; S.A.): 1; GR85 [9]: 2.0 kg/ha; S.F. (GR15/GR85) [9]: 1.5; GR85 ([10]; in corn, P.P.I., 6 WAT): 2.0 kg/ha; S.F. (GR15/GR85) ([10]; in corn, P.P.I., 6 WAT): 2.5; GR85 ([10]; in corn, P.P.I., 6.5 WAT): 4.5 kg/ha; S.F. (GR15/GR85) ([10]; in corn, P.P.I., 6.5 WAT): 1.5; GR85 ([10]; in corn, S.A., 6 WAT): < 1.1 kg/ha; S.F. (GR15/GR85) ([10]; in corn, S.A., 6 WAT): 4; GR85 ([10]; in corn, S.A., 6.5 WAT): 8.4 kg/ha; GR85 ([10]; in soybeans, P.P.I., 3 WAT): < 1.1 kg/ha; S.F. (GR15/GR85) ([10]; in soybeans, P.P.I., 3 WAT): > 4; GR85 ([10]; in soybeans, P.P.I., 5 WAT): < 1.1 kg/ha; S.F. (GR15/GR85) ([10]; in soybeans, P.P.I., 5 WAT): > 4; GR85 ([10]; in soybeans, S.A., 3 WAT): < 1.1 kg/ha; S.F. (GR15/GR85) ([10]; in soybeans, S.A., 3 WAT): > 4; GR15 ([11]; Corn/Cocklebur, P.P.I., 3 WAT): 4.8 kg/ha; GR15 ([11]; Corn/Cocklebur, P.P.I., 6 WAT): 4.8 kg/ha; GR15 ([11]; Corn/Cocklebur, S.A., 3 WAT): > 4.5 kg/ha; GR15 ([11]; Corn/Cocklebur, S.A., 6 WAT): > 4.5 kg/ha; GR15 ([11]; Corn/Giant foxtail, P.P.I., 6 WAT): 4.8 kg/ha; GR15 ([11]; Corn/Giant foxtail, P.P.I., 6.5 WAT): > 6.7 kg/ha; GR15 ([11]; Corn/Giant foxtail, S.A., 6 WAT): 4.5 kg/ha; GR15 ([11]; Corn/Giant foxtail, S.A., 6.5 WAT): > 7.8 kg/ha; GR15 ([11]; Corn/Morningglory, P.P.I., 3 WAT): 4.8 kg/ha; GR15 ([11]; Corn/Morningglory, P.P.I., 6 WAT): 4.8 kg/ha; GR15 ([11]; Corn/Morningglory, S.A., 3 WAT): > 4.5 kg/ha; GR15 ([11]; Corn/Morningglory, S.A., 6 WAT): > 4.5 kg/ha; GR85 ([12]; P.P.I., 3 WAT): > 4.5 kg/ha; GR85 ([12]; P.P.I., 6 WAT): > 4.5 kg/ha; GR85 ([12]; S.A., 3 WAT): > 4.5 kg/ha; GR85 ([12]; S.A., 6 WAT): > 4.5 kg/ha; suppression ([12]; Table IX): suppression of these weeds was exhibited; GR85 ([13]; P.P.I., 6 WAT): 4.2 kg/ha; GR85 ([13]; S.A., 6 WAT): 1.7 kg/ha; S.F. (GR15/GR85) ([13]; S.A., 6 WAT): 2; GR85 ([13]; S.A., 9 WAT): 2.2 kg/ha; S.F. (GR15/GR85) ([13]; S.A., 9 WAT): 1.5; GR15 ([14]; Cotton/Crabgrass, P.P.I., 7 WAT): 0.84 kg/ha; GR15 ([14]; Cotton/Crabgrass, S.A., 7 WAT): 1.4 kg/ha; GR15 ([14]; Cotton/Goosegrass, P.P.I., 7 WAT): 0.84 kg/ha; GR15 ([14]; Cotton/Prickly sida, P.P.I., 6 WAT): 3.4 kg/ha; GR15 ([14]; Cotton/Prickly sida, S.A., 6 WAT): 3.6 kg/ha; GR15 ([14]; Cotton/Prickly sida, S.A., 9 WAT): 3.4 kg/ha; GR15 ([14]; Cotton/Purple nutsedge, P.P.I., 6 WAT): 3.4 kg/ha; GR15 ([14]; Cotton/Purple nutsedge, S.A., 6 WAT): 3.6 kg/ha; GR15 ([14]; Cotton/Purple nutsedge, S.A., 9 WAT): 3.4 kg/ha; GR15 ([14]; Cotton/Purslane, S.A., 9 WAT): 3.4 kg/ha; GR85 ([15]; P.P.I.): 1.1 kg/ha; GR85 ([15]; S.A.): < 1.1 kg/ha; S.F. (GR15/GR85) ([15]; S.A.): > 1; GR85 [16]: < 1.1 kg/ha; control [16]: marginal or indeterminate
